Columns and labels:
Assay in all cases: relative viability (nuclei count vs DMSO), 5 days (fraction); higher = more cells survive
[1] = compound: CC1=C(CC(=O)O)c2cc(F)ccc2/C1=C\c1ccc([S+](C)[O-])cc1 [Sulindac] + CC(=O)c1c(C)c2cnc(Nc3ccc(N4CCNCC4)cn3)nc2n(C2CCCC2)c1=O [Palbociclib] (partner 0.5 µM)
Procedure, shortened: (§1)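 Relative viability is defined as nuclei in treated wells over nuclei in vehicle wells. Duplicate plates were run and medians reported. Lung cancer cell lines in 1536-well plates were dosed by pin tool one day after seeding, with one drug or with a fixed anchor-drug dose plus five library-drug doses (not always all listed) in √10 steps, and nuclei were counted after 5 days.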

[2] = compound: CC1=C(CC(=O)O)c2cc(F)ccc2/C1=C\c1ccc([S+](C)[O-])cc1 [Sulindac] + O=C(c1cc(Cc2n[nH]c(=O)c3ccccc23)ccc1F)N1CCN(C(=O)C2CC2)CC1 [Olaparib] (partner 8 µM)
Procedure, shortened: as §1

[3] = compound: O=c1[nH]cc(F)c(=O)[nH]1 [5-Fluorouracil] + CC1(C)CCC(c2ccc(Cl)cc2)=C(CN2CCN(c3ccc(C(=O)NS(=O)(=O)c4ccc(N[C@H](CCN5CCOCC5)CSc5ccccc5)c(S(=O)(=O)C(F)(F)F)c4)cc3)CC2)C1 [Navitoclax] (partner 0.5 µM)
Procedure, shortened: as §1

[4] = compound: O=c1[nH]cc(F)c(=O)[nH]1 [5-Fluorouracil] + NC(=O)Nc1cc(-c2cccc(F)c2)sc1C(=O)N[C@H]1CCCNC1 [AZD7762] (partner 0.2 µM)
Procedure, shortened: as §1

Row | Cell Line | relative viability ([1]; first compound 0.08 µM) | relative viability ([1]; first compound 0.253 µM) | relative viability ([1]; first compound 0.8 µM) | relative viability ([1]; first compound 2.53 µM) | relative viability ([1]; first compound 8 µM) | relative viability ([2]; first compound 0.08 µM) | relative viability ([2]; first compound 0.253 µM) | relative viability ([2]; first compound 0.8 µM) | relative viability ([2]; first compound 2.53 µM) | relative viability ([2]; first compound 8 µM) | relative viability ([3]; first compound 0.02 µM) | relative viability ([3]; first compound 0.2 µM) | relative viability ([3]; first compound 0.6325 µM) | relative viability ([3]; first compound 2 µM) | relative viability ([4]; first compound 0.02 µM) | relative viability ([4]; first compound 0.2 µM) | relative viability ([4]; first compound 0.6325 µM) | relative viability ([4]; first compound 2 µM)
1 | NCI-H1734 | 0.298 | 0.345 | 0.311 | 0.32 | 0.402 | 0.634 | 0.67 | 0.609 | 0.649 | 0.674 | 0.795 | 0.932 | 0.765 | 0.428 | 0.539 | 0.613 | 0.54 | 0.314
2 | NCI-H1755 | 0.479 | 0.48 | 0.517 | 0.495 | 0.504 | 0.888 | 0.952 | 0.829 | 0.85 | 0.991 | 0.982 | 0.757 | 0.291 | 0.198 | 0.4 | 0.31 | 0.285 | 0.28
3 | NCI-H1792 | 0.646 | 0.734 | – | 0.601 | 0.635 | 0.429 | 0.449 | – | 0.453 | 0.725 | 0.64 | 0.591 | 0.131 | 0.118 | 0.641 | 0.303 | 0.213 | 0.218
4 | NCI-H1793 | 0.301 | 0.375 | – | 0.34 | 0.364 | 0.963 | 0.934 | – | 0.973 | 1.08 | 0.385 | 0.53 | 0.403 | 0.289 | 0.344 | 0.488 | 0.409 | 0.332
5 | NCI-H1915 | 0.566 | 0.538 | 0.574 | 0.517 | 0.506 | 0.241 | 0.266 | 0.245 | 0.254 | 0.264 | 0.714 | 0.8 | 0.779 | 0.668 | 0.409 | 0.683 | 0.643 | 0.577
6 | NCI-H1944 | 0.363 | 0.333 | 0.338 | 0.351 | 0.374 | 0.433 | 0.404 | 0.302 | 0.438 | 0.42 | 0.926 | 0.862 | 0.331 | 0.24 | 0.475 | 0.199 | 0.106 | 0.0961
7 | NCI-H1975 | 0.621 | 0.638 | 0.451 | 0.546 | 0.619 | 0.998 | 0.763 | 0.65 | 0.841 | 0.974 | 1.11 | 1.1 | 0.514 | 0.261 | – | 0.596 | 0.32 | 0.28
8 | NCI-H1993 | 0.666 | 0.658 | 0.591 | 0.727 | 0.604 | 1.03 | 1.11 | 0.895 | 1.05 | 1.13 | 0.952 | 0.885 | 0.752 | 0.669 | 0.737 | 0.622 | 0.542 | 0.505
9 | NCI-H2085 | 0.406 | 0.487 | 0.497 | 0.508 | 0.429 | 0.742 | 0.79 | 0.711 | 0.792 | 0.837 | 0.972 | 1.14 | 1.08 | 0.875 | 0.938 | 0.935 | 0.837 | 0.644
10 | NCI-H2087 | 0.224 | 0.273 | 0.228 | 0.239 | 0.224 | 0.606 | 0.722 | 0.54 | 0.468 | 0.571 | 0.928 | 0.917 | 0.573 | 0.557 | 1.42 | 1.01 | 0.606 | 0.408
11 | NCI-H2126 | 0.344 | 0.333 | 0.395 | 0.372 | 0.361 | 1.12 | 0.923 | 0.87 | 0.951 | 1 | 0.827 | 0.367 | 0.303 | 0.298 | 0.995 | 0.249 | 0.209 | 0.256
12 | NCI-H2170 | 0.482 | 0.402 | 0.413 | 0.427 | 0.38 | 0.658 | 0.576 | 0.493 | 0.591 | 0.626 | 0.573 | 0.557 | 0.351 | 0.31 | 0.793 | 0.718 | 0.317 | 0.236
13 | NCI-H2347 | 0.42 | 0.459 | 0.453 | 0.379 | 0.461 | 0.546 | 0.599 | 0.562 | 0.574 | 0.616 | 0.638 | 0.65 | 0.369 | 0.354 | 0.63 | 0.45 | 0.339 | 0.343
14 | NCI-H2405 | 0.531 | 0.525 | 0.5 | 0.509 | 0.593 | 0.93 | 0.851 | 0.86 | 0.831 | 1.08 | 0.93 | 0.793 | 0.858 | 0.59 | 0.813 | 0.86 | 0.684 | 0.494
15 | NCI-H3122 | 0.161 | 0.183 | 0.218 | 0.204 | 0.205 | 0.739 | 0.648 | 0.579 | 0.655 | 0.604 | 1.04 | 0.743 | 0.443 | 0.259 | 0.959 | 0.856 | 0.197 | 0.143
16 | PC-3 [JPC-3] | 0.477 | 0.521 | 0.596 | 0.502 | 0.545 | 1.36 | 1.09 | 0.941 | 1.13 | 1.25 | 0.793 | 0.759 | 0.767 | 0.63 | 0.815 | 0.855 | 0.908 | 0.816
17 | PC-14 | 0.562 | 0.497 | 0.489 | 0.567 | 0.758 | 0.271 | 0.321 | 0.272 | 0.209 | 0.272 | 1.13 | 1.05 | 0.791 | 0.499 | 0.361 | 0.431 | 0.389 | 0.278
18 | RERF-LC-KJ | 1.1 | 1.11 | 1.04 | 1.12 | 1.07 | 0.949 | 1.01 | 0.971 | 0.861 | 1.07 | 0.834 | 0.971 | 1.01 | 0.554 | 0.973 | – | 0.948 | 0.893

— the supplement of paper PMC10307832
